Test results taken from patent US8440835B2, “Environmentally sensitive fluorophores” (Massachusetts Institute of Technology, priority 2007, dated 2013).

What was measured:
Assay type in all cases: physicochemical
[1] = Hydrolysis of the imide ring followed by fluorescence in PBS buffer over 24 hours
Procedure: The 4DMAP and 6DMN fluorophores are likely susceptible to the gradual hydrolysis of the imide ring system in the pH range of 7 to 8. The origin of this reactivity can be attributed to the bond angle strain of the five-membered imide ring system that is released during the ring opening process. […] This is apparent in an experiment performed on both the KR4DMAP and KR4DMN peptides using a PerkinElmer HTS7000 plate reader. Fluorescence of the two peptides was measured at their respective emission wavelengths in PBS buffer over a 24 hour period at 28° C.
The fluorophore remained intact throughout the 24 hr duration. This difference between the stability of 4DMN and that of 4DMAP is most evident at pH 8 where the rate of hydrolysis for 4DMAP is greatest (FIG. 7).

[2] = Fluorescence spectra of the KR peptide series in dioxane vs. TBS buffer; conditions: for fluorescence intensity ratio (Idioxane/ITBS), in words: at the wavelength of maximum emission intensity in dioxane
Procedure: This example illustrates investigations into the biological applications of the dimethylamino phthalimide series of environment sensitive fluorophores (FIGS. 3C-3E), as compared to both dansyl and NBD. A comparative study was performed on the fluorophores of FIG. 3 by synthetically preparing a series of lysine-arginine rich peptides (KR peptide series) such that each peptide in the series contained one of the five fluorophores appended to the side-chain of the residue at position 4 in the peptide sequence (FIG. 4), SEQ ID NOs: 5-9. The fluorescence spectra of the KR peptides were then measured at 5 micromolar in both TBS buffer (pH 7.4) and dioxane (containing 5 mM 18-crown-6). These conditions were selected to determine the magnitude of the fluorescence change for each fluorophore under an ideal set of conditions. […] An advantage of this property is a much improved signal-to-noise ratio for experimental measurements made in the context of real biological systems. […] While it is often possible to optimize the maximum fluorescence output by experimenting with the placement of the selected fluorophore on the protein of interest, the intrinsic fluorescence of the fluorophore in aqueous environments is often a limiting factor when optimizing the fluorescent response.

[3] = Resistance of the 4DMN side chain to solid-phase peptide synthesis conditions; conditions: 0.12 M diisopropylethylamine; 20% piperidine; 95% TFA
Procedure: The peptide synthesis was carried out using standard Fmoc-based solid phase peptide synthesis (SPPS) protocols on a 0.05 to 0.1 mmol scale using a 0.21 mmol/g loading PAL-PEG-PS solid support. Amino acids were coupled in three-fold excess using a mixture of 0.2 M HBTU/0.2 M HOBt in DMF as activating agents. Each amino acid was activated for two minutes with the HBTU/HOBt mixture (1 eq.) and diisopropylethylamine (DIPEA), 0.195 M in DMF (1.5 eq.) before being added to the resin. Peptide coupling was monitored using the 2,4,6-trinitrobenzenesulphonic acid (TNBS) test. Amino acids were used as protected Fmoc-amino acids with the standard side chain protecting groups. High-performance liquid chromatography (HPLC) was performed using a Waters 600E HPLC fitted with a Waters 600 automated control module and a Waters 2487 dual wavelength absorbance detector recording at 228 and 280 nm. For analytical HPLC, a Beckman Ultrasphere C18, 5 micrometer, 4.6×150 mm reverse-phase column was used. For preparative separations, a YMC-pack, C18, 250×20 mm reversed phase column was used. The standard gradient for analytical and preparative HPLC used was 93:7 to 5:95 over 35 minutes (water:acetonitrile, 0.1% TFA).

[4] = Exposure to standard Fmoc deprotection protocol (20% 4-methylpiperidine in DMF) on solid support, analysis by MALDI-MS, HPLC, ESI-MS
Procedure: This example illustrates the incorporation of 4DMAP and 6DMN into peptides by coupling an anhydride precursor of either fluorophore to a free amine on a fully synthesized peptide in the last step prior to cleaving the peptide from the solid support. […] This is evident in the experiment shown in FIG. 9 where the KR peptides of 4DMN and 6DMN were both exposed to a standard Fmoc deprotection protocol while still on solid support. Roughly 20 mg of resin for each peptide was transferred to a small 2 mL spin tube and treated at room temperature with a solution of 20% 4-methylpiperidine in DMF (3×5 min). The peptides were then cleaved from the resin and analyzed by MALDI-MS, HPLC, and ESI-MS.
The masses of these two peaks determined by ESI-MS were identical and confirmed to be that of the 4-methylpiperidine adduct. It is believed that the occurrence of the two byproduct peaks, instead of one, is due to varying retention times for the two possible isomers formed depending on which of the imide carbonyls are attacked by the base. […] The HPLC and ESI-MS analysis also confirmed that no reaction occurred. The 4DMNA amino acid appears to be unreactive under these conditions. Furthermore, it is worth emphasizing that the 4DMN chromophore was exposed to this same treatment twice previously during the preparation of the KR4DMN peptide using the 4DMNA Fmoc building-block.

CN(C)c1ccc2c(c1)C(=O)NC2=O [4DMAP, 4-dimethylamino phthalimide, reference compound]
rate of hydrolysis ([1]; pH 8, PBS buffer, 28° C.): significantly enhanced | fluorescence intensity ratio (Idioxane/ITBS), in words [2]: greater than three orders of magnitude

CN(C)c1ccc2c3c(cccc13)C(=O)NC2=O [4DMN, 4-N,N-dimethylamino-1,8-naphthalimide]
hydrolysis of the imide ring system ([1]; pH range of 7 to 8): no such reactivity | fluorescence intensity ratio (Idioxane/ITBS), in words [2]: greater than three orders of magnitude | resistance to peptide synthesis conditions [3]: resistant

CN(C)c1ccc2c3c(cccc13)C(=O)N(CC(N)C(=O)O)C2=O (stereo not drawn) [4DMNA]
formation of 4-methylpiperidine adduct ([4]; 20% 4-methylpiperidine in DMF, 3×5 min, room temperature, on resin): unreactive

CN(C)c1ccc2cc3c(cc2c1)C(=O)NC3=O [6DMN, 6-N,N-dimethylamino-2,3-naphthalimide]
fluorescence intensity ratio (Idioxane/ITBS), in words [2]: greater than three orders of magnitude

CN(C)c1ccc2c3c(cccc13)C(=O)N(CC(NC(=O)OCC1c3ccccc3-c3ccccc31)C(=O)O)C2=O (stereo not drawn) [Fmoc-4DMNA, N-α-Fmoc-(4-N,N-dimethylamino-1,8-naphthalimido) alanine]
susceptibility to nucleophilic attack by bases like 4-methylpiperidine ([4]; use in preparation of various peptides): no susceptibility

dansyl
λexc ([2]; KR peptide series): below 350 nm
